Measured values published in patent US20090005363A1, “Organic Compounds” (priority 2005, published 2009).

Biological target: mGluR5 (Homo sapiens, UniProt P41594)
Experiment: inhibition of the glutamate induced elevation of intracellular Ca2+ concentration
Details: read-out: mGluR5 Activity inh. at 10 μM [%]
Description: This can be determined in vitro for example at recombinant human metabotropic glutamate receptors, especially PLC-coupled subtypes thereof such as mGluR5, using different procedures like, for example, measurement of the inhibition of the agonist induced elevation of intracellular Ca^2+ concentration in accordance with L. P. Daggett et al., Neuropharm.

mGluR5, sequence (P41594 21-1180 isoform P41594-2 limits assumed): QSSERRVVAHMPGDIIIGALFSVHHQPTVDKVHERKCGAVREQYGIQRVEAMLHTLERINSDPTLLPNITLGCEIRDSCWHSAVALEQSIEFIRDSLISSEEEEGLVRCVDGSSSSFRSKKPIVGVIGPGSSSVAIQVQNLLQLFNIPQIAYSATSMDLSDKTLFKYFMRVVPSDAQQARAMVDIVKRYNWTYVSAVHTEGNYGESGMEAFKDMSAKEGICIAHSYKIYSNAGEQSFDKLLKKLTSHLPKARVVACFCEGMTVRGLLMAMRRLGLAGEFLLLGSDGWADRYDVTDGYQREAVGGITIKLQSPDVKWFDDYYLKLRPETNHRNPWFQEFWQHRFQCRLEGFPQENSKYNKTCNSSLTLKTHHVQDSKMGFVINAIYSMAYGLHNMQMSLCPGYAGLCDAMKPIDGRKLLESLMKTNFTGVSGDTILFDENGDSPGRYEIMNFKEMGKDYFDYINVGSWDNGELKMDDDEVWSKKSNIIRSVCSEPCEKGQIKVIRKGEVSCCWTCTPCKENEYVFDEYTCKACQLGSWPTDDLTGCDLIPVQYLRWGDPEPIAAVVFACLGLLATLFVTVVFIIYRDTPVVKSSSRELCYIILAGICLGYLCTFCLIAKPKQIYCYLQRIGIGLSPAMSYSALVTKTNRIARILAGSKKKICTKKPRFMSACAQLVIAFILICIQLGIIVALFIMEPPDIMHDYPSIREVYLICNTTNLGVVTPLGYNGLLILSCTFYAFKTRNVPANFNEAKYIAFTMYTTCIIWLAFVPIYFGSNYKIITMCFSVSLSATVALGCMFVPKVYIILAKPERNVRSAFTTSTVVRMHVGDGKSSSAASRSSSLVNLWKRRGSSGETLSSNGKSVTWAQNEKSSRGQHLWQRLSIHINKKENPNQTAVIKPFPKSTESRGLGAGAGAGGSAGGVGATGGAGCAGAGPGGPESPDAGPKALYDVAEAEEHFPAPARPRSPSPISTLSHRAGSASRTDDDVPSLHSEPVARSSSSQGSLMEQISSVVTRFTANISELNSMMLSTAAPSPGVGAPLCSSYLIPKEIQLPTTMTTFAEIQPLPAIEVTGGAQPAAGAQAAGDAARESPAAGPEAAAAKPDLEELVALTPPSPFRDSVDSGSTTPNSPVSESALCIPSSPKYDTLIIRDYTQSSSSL

inhibition at 10 µM [%]	SMILES
100	Cc1ccc(Nc2ncc(C(=O)N3CCSCC3)cc2Cl)cn1 [Compound 2.15, [5-Chloro-6-(6-methyl-pyridin-3-ylamino)-pyridin-3-yl]-thiomorpholin-4-yl-methanone]
97	Cc1ncc(Nc2ncc(C(=O)N3CCCC(C)C3)cc2Cl)cn1 (stereo not shown) [Compound 2.16, [5-Chloro-6-(2-methyl-pyrimidin-5-ylamino)-pyridin-3-yl]-(3-methyl-piperidin-1-yl)-methanone]
97	Cc1ncc(Nc2ncc(C(=O)N3CCCCC3)cc2Cl)cn1 [Compound 2.17, [5-Chloro-6-(2-methyl-pyrimidin-5-ylamino)-pyridin-3-yl]-piperidin-1-yl-methanone]
100	Cc1ncc(Nc2ncc(C(=O)N3CCCCCC3)cc2Cl)cn1 [Compound 2.18, Azepan-1-yl-[5-chloro-6-(2-methyl-pyrimidin-5-ylamino)-pyridin-3-yl]-methanone]
100	CC[C@@H]1CCCCN1C(=O)c1cnc(Nc2ccc(C(F)(F)F)nc2)c(Cl)c1 [Compound 2.23, [5-Chloro-6-(6-trifluoromethyl-pyridin-3-ylamino)-pyridin-3-yl]-((R)-2-ethyl-piperidin-1-yl)-methanone]
97	CC[C@@H]1CCCCN1C(=O)c1cnc(Nc2ccc(OC)nc2)c(Cl)c1 [Compound 2.24, [5-Chloro-6-(6-methoxy-pyridin-3-ylamino)-pyridin-3-yl]-((R)-2-ethyl-piperidin-1-yl)-methanone]
97	Cc1ccc(Oc2ncc(C(=O)N3CCCCC3)cc2Cl)cn1 [Compound 3.2, [5-Chloro-6-(6-methyl-pyridin-3-yloxy)-pyridin-3-yl]-piperidin-1-yl-methanone]
90	Cc1ccc(Oc2ncc(C(=O)N3CCCCCC3)cc2Cl)cn1 [Compound 3.3, Azepan-1-yl-[5-chloro-6-(6-methyl-pyridin-3-yloxy)-pyridin-3-yl]-methanone]
99	Cc1ccc(Nc2ccc(C(=O)N3CCCCC3)cn2)cn1 [Compound 4.1, [6-(6-Methyl-pyridin-3-ylamino)-pyridin-3-yl]-piperidin-1-yl-methanone]
97	O=C(c1ccc(Nc2ccc(Cl)cc2)nc1)N1CCCCCC1 [Compound 4.2, Azepan-1-yl-[6-(4-chloro-phenylamino)-pyridin-3-yl]-methanone]
92	O=C(c1ccc(Nc2ccc(Cl)cc2)nc1)N1CCCC(F)(F)C1 [Compound 4.3, [6-(4-Chloro-phenylamino)-pyridin-3-yl]-(3,3-difluoro-piperidin-1-yl)-methanone]
98	CC1CCN(C(=O)c2ccc(Nc3ccc(Cl)cc3)nc2)CC1 [Compound 4.4, [6-(4-Chloro-phenylamino)-pyridin-3-yl]-(4-methyl-piperidin-1-yl)-methanone]
88	CC1CC(C)CN(C(=O)c2ccc(Nc3ccc(Cl)cc3)nc2)C1 (stereo not shown) [Compound 4.5, [6-(4-Chloro-phenylamino)-pyridin-3-yl]-(3,5-dimethyl-piperidin-1-yl)-methanone]
94	O=C(c1ccc(Nc2ccc(Cl)cc2)nc1)N1CCCC2CCCCC21 (stereo not shown) [Compound 4.8, [6-(4-Chloro-phenylamino)-pyridin-3-yl]-(octahydro-quinolin-1-yl)-meth anone]

SMILES	inhibition at 10 µM [%]
O=C(c1ccc(Nc2ccc(Cl)cc2)nc1)N1CC2CCC(CC2)C1 [Compound 4.9, (3-Aza-bicyclo[3.2.2]non-3-yl)-[6-(4-chloro-phenylamino)-pyridin-3-yl]-methanone]	37
O=C(c1ccc(Nc2ccc(Cl)cc2)nc1)N1C2CCC1CC(O)C2 (stereo not shown) [Compound 4.11, [6-(4-Chloro-phenylamino)-pyridin-3-yl]-(3-hydroxy-8-aza-bicyclo[3.2.1]oct-8-yl)-methanone]	51
